Assay results published in US20150265558A1, “TREATMENT OF ADHD” (BTG International Limited, priority 2004, published 2015).

Tests used:
[1] = system: Fisher rats (frontal cortex, hippocampus, striatum, reticular formation); experiment: Tele-Stereo-EEG: electrical power of four brain areas in freely-moving rats after single i.p. dose; assay type: in vivo, rat
Excerpt: Analysis of brain field potentials (“Tele-Stereo-EEG”) has been proven to be a very sensitive tool for the characterization of drug effects on the central nervous system (Dimpfel et al., 1986). After administration of a centrally active drug, quantitative changes in the brain field potentials can be considered as a characteristic fingerprint of that particular drug. “Fingerprints” of more than 100 compounds have been obtained including 8 established drug categories, e.g. stimulants, sedatives, hallucinogenics, tranquilizers, analgesics, antidepressants, neuroleptics, and narcotics. Different dosages of the same drug cause quantitative changes in electrical power. […] Direct comparison with specific reference drugs, or by discriminant analysis with reference to an extensive fingerprint database, permits the detection of any possible similarities with established drugs. In general, “fingerprints” show prominent differences for drugs prescribed for different indications and are similar for drugs with the same indication (Dimpfel, 2003). Furthermore, the pattern of EEG changes in the rat is a useful tool in predicting possible changes in the EEG power spectrum in humans.
Adult Fisher rats (4-6 month of age and day—night converted, bodyweight approximately 400 g) were implanted with 4 bipolar concentric steel electrodes using a stereotaxic surgical procedure. According to the coordinates of Paxinos and Watson (1982), all four electrodes were placed 3 mm lateral within the left hemisphere. Anterior coordinates were 12.2, 5.7, 9.7 and 3.7 mm for frontal cortex, hippocampus, striatum and reticular formation, respectively. A baseplate carrying the electrodes and a 5-pin-plug was fixed to the skull by dental cement attached to 3 steel screws fixed into the skull. Animals were given two weeks for recovery from the surgical procedure.
EEG signals were recorded from frontal cortex, hippocampus, striatum and reticular formation and were amplified and processed as described by Dimpfel et al. (1986). After automatic artifact rejection, signals were collected in sweeps of 4 s duration and submitted to Fast Fourier transformation. The resulting electrical power spectra were divided into 6 frequency ranges: delta (0.8-4.5 Hz); theta (4.75-6.75 Hz); alpha1 (7.00-9.50 Hz); alpha2 (9.75-12.50 Hz); beta (12.75-18.50 Hz); beta2 (18.75-35.00 Hz). […] In an off-line procedure spectra were averaged to give 15 minute or longer periods for further statistical analysis.
Four doses of KTX 0101 (sodium (R)-3-hydroxybuytrate: 100, 300, 600 and 1000 mg/kg body weight) (supplied by Solvias AG, CH 4002 Basel, Switzerland, batch No: SO-1058.047.1.120) and a vehicle control (0.9% w/v saline) were administered intraperitoneally to a group of 12 animals using a crossover design with at least 3 drug holidays in between the applications. After a pre-drug period of 45 minutes for baseline recording, drug effects were observed continuously for 300 minutes. Changes of electrical power (uV2/W) are expressed as percentage of the 45 minute pre-drug values. Multivariate statistics were calculated according to Ahrens and Läuter (1974).

[2] = Plasma determination of (R)-3-hydroxybutyrate after i.p. injection; assay type: in vivo, Sprague-Dawley rats
Procedure: (§1) One hundred and seventy-one male Sprague-Dawley rats (weight range 200-250 g) housed on a standard […] were used. Animals had free access to a standard pelleted rat diet and tap water at all times. KTX 0101 (sodium (R)-3-hydroxybuytrate; 100, 300, 600 and 1000 mg/kg body weight) supplied by Sigma (H6501, Lot 111K2618) was administered by intraperitoneal injection. Control animals received the appropriate 0.9% saline vehicle via the same route. Animals were killed by CO2 asphyxiation 0 h, 0.5 h, 1.0 h or 2.0 h after dosing and a terminal blood sample was collected by cardiac puncture. Blood was taken in lithium heparinised tubes and kept on ice prior to centrifugation to yield the plasma samples for analysis.
Commercial clinical assay kits for the determination of D-β-hydroxybutyrate were obtained from Randox Laboratories (Antrim, UK). The kit quantified NADH via the activity of β-hydroxybutyrate dehydrogenase measured as an increase in OD340 nm. An alkaline pH is necessary to drive the reaction equilibrium towards the production of NADH and acetoacetate.
This spectrophotometric assay was modified for application to a 96 well microplate format. The reaction rate was then determined from the increase in OD340 nm over a 1 minute time course, after allowing a necessary period for the reaction rate to settle.

[3] = Plasma determination of acetoacetate after i.p. injection; assay type: in vivo, Sprague-Dawley rats; conditions: 30 min after dosing
Procedure: as §1
The assay developed for the determination of acetoacetate was based on previously published clinical assays (Li et al, 1980; McMurray et al, 1984). A different assay buffer was prepared (0.1M Na2PO4 adjusted to pH 7.0 with HCl) in order to shift the equilibrium of the reaction to production of […] and NAD+, Other modifications included the additional use of sodium oxalate at a final assay concentration of 20 mM to inhibit lactate dehydrogenase (LDH) present in the plasma samples. […]
Acetoacetate was measured via the reduction in OD340 nm over a 1 minute period after allowing for the reaction rate to settle.

[4] = system: freely moving rat; conditions: cited from earlier work; for effect on alpha2 frequencies: Dimpfel et al., 1987

## C[C@@H](O)CC(=O)[O-].[Na+] [KTX 0101, sodium (R)-3-hydroxybuytrate]
[1]; 100 mg/kg i.p.
  duration of EEG effects: 1 to 2 h
  statistical significance of EEG changes: not statistically significant
[1]; 100 mg/kg i.p., all regions
  pattern of change in EEG electrical power: decrease of electrical power mainly with regard to alpha2
[1]; 300 mg/kg ip
  duration of EEG pattern of changes: 2 h
  pattern of change in EEG electrical power: decreases in alpha2 power throughout all brain regions
  statistical significance of EEG changes: only statistically significant in the reticular formation
[1]; 600 mg/kg ip, generally, except reticular formation
  duration of EEG effects: 2 h
[1]; 600 mg/kg ip, reticular formation
  duration of decreases in power in the reticular formation: persisted throughout the third hour
[1]; 600 mg/kg ip, incl. first hour in striatum and all 24 variables overall
  statistical significance of EEG changes: statistically significant
[1]; 1000 mg/kg
  duration of decreases of power: lasting into the third hour
  pattern of change in EEG electrical power: more prominent decreases of power
[1]; 1000 mg/kg, reticular formation, total experimental time
  duration of decreases of power in the reticular formation: 5 h
[1]; 1000 mg/kg, even for the 4th hour within the reticular formation
  statistical significance of EEG changes: statistically significant
[1]; 2 highest doses (600 and 1000 mg/kg)
  brain regions with significant EEG changes: significant changes were also observed in the frontal cortex, hippocampus and striatum
[1]; 24 variables, 20th to 50th min after single-dose application
  similarity of qEEG fingerprint to drug classes by discriminant analysis: close proximity to the dopaminergic psychostimulants, d-amphetamine and cocaine
[1]; 100 to 1000 mg/kg i.p.
  EEG frequencies affected: all frequencies, except for the beta2 range
[1]; after injection
  period of greatest changes in EEG patterns: 5 to 65 min
[1]; dose range of 300 to 1000 mg/kg ip
  EEG changes, summary: clear, dose- and time-dependent statistically significant changes
[2]; 100, 300, 600 and 1000 mg/kg ip
  plasma concentration of (R)-3-hydroxybutyrate: clear dose-dependent increases
[2]; 100-1000 mg/kg ip, first sample
  time of highest elevation in plasma (R)-3-hydroxybutyrate: 30 min
[2]; after injection
  time to return of plasma (R)-3-hydroxybutyrate to control values: ≤ 1 h
[3]; 600 mg/kg
  plasma concentration of acetoacetate: significantly increased
[3]; 1000 mg/kg
  plasma concentration of acetoacetate: significantly increased

## N[C@@H](Cc1ccc(O)c(O)c1)C(=O)O [L-DOPA]
[4]
  effect on alpha2 frequencies: decrease alpha2 frequencies

## Oc1cc2c(cc1O)C(c1ccccc1)CNCC2 (stereo not drawn) [SKF 38393]
[4]
  effect on alpha2 frequencies: decrease alpha2 frequencies

## CC(N)Cc1ccccc1 (stereo not drawn) [amphetamine]
[4]
  effect on alpha2 frequencies: decrease alpha2 frequencies

## Clc1cccc(Cl)c1N=C1NCCN1 [clonidine]
[4]; Dimpfel and Schober, 2001
  effect on theta activity: increase
